Reference: patent US11491134B2, “Composition for inhibiting skin cell proliferation and/or anti-inflammation method for inhibiting skin cell proliferation and/or anti-inflammation and method for treating skin diseases and/or inflammatory diseases” (Industrial Technology Research Institute, priority 2019, dated 2022)

Test system: macrophages, RAW264.7 cells
Test: Inhibition rate on inflammation (anti-inflammatory activity): nitric oxide, Griess reagent, LPS-treated macrophages
Format: cell-based
Settings: Mus musculus; for inhibition at 1.5625 µM: luteolin 1.5625 μM/0.45 μg/mL; for inhibition at 3.125 µM: luteolin 3.125 μM/0.89 μg/mL; for inhibition at 6.25 µM: luteolin 6.25 μM/1.79 μg/mL; for inhibition at 12.5 µM: luteolin 12.5 μM/3.58 μg/mL; for inhibition at 25 µM: luteolin 25 μM/7.16 μg/mL; for inhibition at 50 µM: luteolin 50 μM/14.31 μg/mL; for inhibition at 0.3125 µM: luteolin 0.3125 μM/0.09 μg/mL; for inhibition at 0.625 µM: luteolin 0.625 μM/0.18 μg/mL; for inhibition at 1.25 µM: luteolin 1.25 μM/0.36 μg/mL; for inhibition at 2.5 µM: luteolin 2.5 μM/0.72 μg/mL; for inhibition at 5 µM: luteolin 5 μM/1.43 μg/mL; for inhibition at 100 µM: luteolin 100 μM/28.62 μg/mL
Protocol: Dimethyl sulfoxide (DMSO) was used as a solvent to prepare apigenin test samples with different concentrations and luteolin test samples with different concentrations. 9 batches of experiments were performed, which respectively were Batch 1 to Batch 9. There were 6 independent experiments in each batch of experiments. In each independent experiment, inhibition rate of an apigenin test sample with a specific concentration on inflammation and inhibition rate of a luteolin test sample with a specific concentration on inflammation were determined, and inhibition rate of a combination of an apigenin test sample with the said specific concentration and a luteolin test sample with the said specific concentration on inflammation was determined. Between the independent experiments, concentrations of apigenin test samples used were different, and concentrations of luteolin test samples used were also different, however, mole ratios or weight ratios of apigenin test samples to luteolin test samples were the same. Moreover, between the batches of experiments, mole ratios or weight ratios of apigenin test samples to luteolin test samples were different. 5×10^4 macrophages, RAW264.7 cells, were inoculated in a 96-well culture plate and then placed in a 37° C. and 5% CO2 incubator for culturing overnight. After overnight culture, the supernatant was removed, and lipopolysaccharide (LPS) (50 ng/mL) and a test sample was added to the cells (refer to Table 2, and the cells of the induced group were treated with lipopolysaccharide and dimethyl sulfoxide while the cells of the control group were only treated with dimethyl sulfoxide) for reaction for 24 hours. Thereafter, the supernatant of each well in the culture plate was transferred to a new culture plate and reacted with Griess reagent (Promega, Cat. No. G2930), respectively, and then the absorbance of each well of the culture plate was determined at 540 nm by a continuous wavelength microplate reader to evaluate the content of nitric oxide (NO), and anti-inflammatory activity was calculated through the following formula: Anti-inflammation=(Induced group540 nm−Experimental group540 nm)/(Induced group540 nm−Control group540 nm) In this experiment, the synergistic effects of apigenin and luteolin were evaluated by CalcuSyn software (BIOSOFT). CalcuSyn software is an analysis software which is commonly used to analyze the drug dosage effect of single drug and multiple drugs at present. CalcuSyn software can be used to analyze drug complex interactions and automatically quantify various phenomena such as synergism and inhibition. CalcuSyn software can process the data of individual drugs and combination drugs with constant-ratio or on-constant-ratio, and can evaluate the interaction of combination drugs by the combination index (CI) (Chou and Talalay, Adv. Enzyme Regul. 22:27-55 (1984) calculated by CalcuSyn software. Calculation formula for the combination index is shown in the following: Combination index=C1/IC1+C2/IC2 C1 and C2 are the respective concentrations of the first compound and the second compound at which the activity of achieving a specific physiological or medical purpose is 50% (or 75%, or 90%) when the first compound and the second compound are analyzed in combination; IC1 and IC2 are the respective concentrations at which the activity of achieving a specific physiological or medical purpose of the first compound and the second compound is 50% (or 75%, or 90%) when the first compound and the second compound are independently analyzed. […]

## O=c1cc(-c2ccc(O)c(O)c2)oc2cc(O)cc(O)c12 [Luteolin, luteolin]
RAW264.7, Batch 1
  inhibition at 1.5625 µM: 0.1%
  inhibition at 3.125 µM: 21.4%
  inhibition at 6.25 µM: 37.2%
  inhibition at 12.5 µM: 56.3%
  inhibition at 25 µM: 84.1%
  inhibition at 50 µM: 99.9%
RAW264.7, Batch 2, luteolin 0.78 μM/0.22 μg/mL
  inhibition at 0.78 µM: 0.1%
RAW264.7, Batch 2
  inhibition at 1.5625 µM: 5.8%
  inhibition at 3.125 µM: 15.4%
  inhibition at 6.25 µM: 29.9%
  inhibition at 12.5 µM: 48.8%
  inhibition at 25 µM: 75.7%
RAW264.7, Batch 3
  inhibition at 0.3125 µM: 0.1%
  inhibition at 0.625 µM: 0.1%
  inhibition at 1.25 µM: 0.1%
  inhibition at 2.5 µM: 5.1%
  inhibition at 5 µM: 49%
RAW264.7, Batch 3, luteolin 10 μM/2.86 μg/mL
  inhibition at 10 µM: 80.3%
RAW264.7, Batch 4, luteolin 0.15625 μM/0.04 μg/mL
  inhibition at 0.15625 µM: 0.1%
RAW264.7, Batch 4
  inhibition at 0.3125 µM: 0.1%
  inhibition at 0.625 µM: 0.1%
  inhibition at 1.25 µM: 0.1%
  inhibition at 2.5 µM: 0.1%
  inhibition at 5 µM: 35.9%
RAW264.7, Batch 5, luteolin 0.078 μM/0.02 μg/mL
  inhibition at 0.078 µM: 0.1%
RAW264.7, Batch 5, luteolin 0.156 μM/0.04 μg/mL
  inhibition at 0.156 µM: 0.1%
RAW264.7, Batch 5
  inhibition at 0.3125 µM: 9.8%
  inhibition at 0.625 µM: 3.1%
  inhibition at 1.25 µM: 0.5%
  inhibition at 2.5 µM: 16.1%
RAW264.7, Batch 6
  inhibition at 3.125 µM: 11.1%
  inhibition at 6.25 µM: 40.8%
  inhibition at 12.5 µM: 67.1%
  inhibition at 25 µM: 89.6%
  inhibition at 50 µM: 99.9%
  inhibition at 100 µM: 99.9%
RAW264.7, Batch 7
  inhibition at 3.125 µM: 13.3%
  inhibition at 6.25 µM: 43.9%
  inhibition at 12.5 µM: 70.2%
  inhibition at 25 µM: 89.3%
  inhibition at 50 µM: 99.9%
  inhibition at 100 µM: 99.9%
RAW264.7, Batch 8
  inhibition at 3.125 µM: 8.9%
  inhibition at 6.25 µM: 34.4%
  inhibition at 12.5 µM: 67.9%
  inhibition at 25 µM: 90.4%
  inhibition at 50 µM: 99.9%
  inhibition at 100 µM: 99.9%
RAW264.7, Batch 9
  inhibition at 1.5625 µM: 4.9%
  inhibition at 3.125 µM: 26.5%
  inhibition at 6.25 µM: 67%
  inhibition at 12.5 µM: 87%
  inhibition at 25 µM: 94.2%
  inhibition at 50 µM: 98.3%
